Assay results reported in patent US12629359B2 (UNIVERSITA' DEGLI STUDI DI BRESCIA, priority 2020, dated 2026).
“Also recorded” adds a separate entry of the source.

Tested on: alpha-synuclein aggregation in primary mesencephalic neurons
Assay: Alpha-synuclein aggregation in primary mouse midbrain neurons exposed to glucose deprivation
Type: cell-based

With `COC(=O)[C@@H](c1ccc(C)cc1)C1CCCCN1.Cl` (stereo partly drawn) [I-threo, threo methyl 2-(piperidin-2-yl)-2-(p-tolyl)acetate hydrochloride] the “alpha-synuclein inclusion formation (total immunofluorescence intensity and particle size)” value (I-threo, VI-threo 50 and 100 nM, MPH 100 nM, hydrochloride) was “significantly reduce alpha-synuclein inclusion formation; also recorded: efficiently hinders alpha-synuclein aggregation” and the “efficiency higher than that of MPH” value (primary neurons) was 50-70%.
